From PubChem BioAssay AID248 (DTP/NCI, 2004)
Values joined by “and” are separate entries in the source; they are usually repeats but may differ in a detail not shown here. Equal entries are not always repeated. Toxic doses and inconclusive results are not listed.

Test system: L1210 leukemia ip in BDF1 mice, survival T/C
Assay: NCI In Vivo Anticancer Drug Screen. Data for tumor model L1210 Leukemia (intraperitoneal) in B6D2F1 (BDF1) mice
Details: endpoint: mean survival time, higher = longer survival
Method in brief: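 Tumor cells were implanted, animals were treated, and survival was followed. The result divides the treated measurement by the vehicle-control measurement.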

[1] = dose: 100.0 mg/kg/injection, schedule: Q01DX001 (ip), vehicle: saline
[2] = dose: 200.0 mg/kg/injection, schedule: Q01DX001 (ip), vehicle: saline
[3] = dose: 400.0 mg/kg/injection, schedule: Q01DX001 (ip), vehicle: saline
[4] = dose: 100.0 mg/kg/injection, schedule: Q01DX009 (ip), vehicle: Klucel (hydroxypropylcellulose) (HPC)
[5] = dose: 200.0 mg/kg/injection, schedule: Q01DX009 (ip), vehicle: Klucel (hydroxypropylcellulose) (HPC)
[6] = dose: 50.0 mg/kg/injection, schedule: Q01DX009 (ip), vehicle: saline with Tween-80
[7] = dose: 100.0 mg/kg/injection, schedule: Q01DX009 (ip), vehicle: saline with Tween-80
[8] = dose: 200.0 mg/kg/injection, schedule: Q01DX009 (ip), vehicle: saline with Tween-80
[9] = dose: 400.0 mg/kg/injection, schedule: Q01DX009 (ip), vehicle: saline with Tween-80
[10] = dose: 100.0 mg/kg/injection, schedule: Q04DX003 (ip), vehicle: Klucel (hydroxypropylcellulose) (HPC)
[11] = dose: 200.0 mg/kg/injection, schedule: Q04DX003 (ip), vehicle: Klucel (hydroxypropylcellulose) (HPC)
[12] = dose: 400.0 mg/kg/injection, schedule: Q04DX003 (ip), vehicle: Klucel (hydroxypropylcellulose) (HPC)
[13] = dose: 400.0 mg/kg/injection, schedule: Q01DX009 (ip), vehicle: Klucel (hydroxypropylcellulose) (HPC)

O=[N+]([O-])c1ccc(O)c(CCl)c1
T/C (dose: 50.0 mg/kg/injection, schedule: Q04DX002 (ip), vehicle: saline with Tween-80): 109 % of control | T/C (dose: 100.0 mg/kg/injection, schedule: Q04DX002 (ip), vehicle: DMSO): 107 % of control | T/C (dose: 100.0 mg/kg/injection, schedule: Q04DX002 (ip), vehicle: saline with Tween-80): 109 % of control | T/C (dose: 200.0 mg/kg/injection, schedule: Q04DX002 (ip), vehicle: DMSO): 86 % of control | T/C (dose: 200.0 mg/kg/injection, schedule: Q04DX002 (ip), vehicle: saline with Tween-80): 98 % of control | T/C (dose: 400.0 mg/kg/injection, schedule: Q04DX002 (ip), vehicle: saline with Tween-80): 104 % of control

CC(=O)CC(=O)CC(C)C
T/C (dose: 50.0 mg/kg/injection, schedule: Q01DX001 (ip), vehicle: saline): 105 % of control | T/C [1]: 103 % of control | T/C [2]: 100 % of control | T/C [3]: 94 % of control

CC(C)(C)N1CCC1C(=O)O (stereo not drawn)
T/C [1]: 92 % of control | T/C [2]: 97 % of control | T/C [3]: 97 % of control

NS(=O)(=O)c1ccc(NC(=O)Nc2ccccc2)cc1
T/C [4]: 92 % of control | T/C [5]: 97 % of control

CC(CCC(C)OS(C)(=O)=O)OS(C)(=O)=O (stereo not drawn)
T/C (dose: 2.0 mg/kg/injection, schedule: Q01DX010 (ip), vehicle: saline): 86 % of control and 87 % of control | T/C (dose: 3.1 mg/kg/injection, schedule: Q01DX009 (ip), vehicle: Klucel (hydroxypropylcellulose) (HPC)): 96 % of control | T/C (dose: 4.0 mg/kg/injection, schedule: Q01DX009 (ip), vehicle: saline): 97 % of control | T/C (dose: 4.0 mg/kg/injection, schedule: Q01DX010 (ip), vehicle: saline): 100 % of control | T/C (dose: 6.25 mg/kg/injection, schedule: Q01DX009 (ip), vehicle: Klucel (hydroxypropylcellulose) (HPC)): 102 % of control and 103 % of control and 101 % of control | T/C (dose: 6.25 mg/kg/injection, schedule: Q04DX002 (ip), vehicle: Klucel (hydroxypropylcellulose) (HPC)): 96 % of control | T/C (dose: 8.0 mg/kg/injection, schedule: Q01DX009 (ip), vehicle: saline): 101 % of control | T/C (dose: 8.0 mg/kg/injection, schedule: Q01DX010 (ip), vehicle: saline): 89 % of control and 90 % of control | T/C (dose: 12.5 mg/kg/injection, schedule: Q01DX009 (ip), vehicle: Klucel (hydroxypropylcellulose) (HPC)): 105 % of control [middle of 4 runs] | T/C (dose: 12.5 mg/kg/injection, schedule: Q04DX002 (ip), vehicle: Klucel (hydroxypropylcellulose) (HPC)): 96 % of control and 100 % of control | T/C (dose: 16.0 mg/kg/injection, schedule: Q01DX009 (ip), vehicle: saline): 108 % of control | T/C (dose: 16.0 mg/kg/injection, schedule: Q01DX010 (ip), vehicle: saline): 106 % of control and 114 % of control | T/C (dose: 25.0 mg/kg/injection, schedule: Q01DX009 (ip), vehicle: Klucel (hydroxypropylcellulose) (HPC)): 102 % of control and 88 % of control and 108 % of control | T/C (dose: 25.0 mg/kg/injection, schedule: Q04DX002 (ip), vehicle: Klucel (hydroxypropylcellulose) (HPC)): 96 % of control and 93 % of control and 94 % of control | T/C (dose: 32.0 mg/kg/injection, schedule: Q01DX009 (ip), vehicle: saline): 103 % of control | T/C (dose: 50.0 mg/kg/injection, schedule: Q01DX009 (ip), vehicle: Klucel (hydroxypropylcellulose) (HPC)): 87 % of control | T/C [6]: 91 % of control and 93 % of control | T/C (dose: 50.0 mg/kg/injection, schedule: Q04DX002 (ip), vehicle: Klucel (hydroxypropylcellulose) (HPC)): 107 % of control | T/C [7]: 98 % of control and 97 % of control | T/C [8]: 91 % of control and 87 % of control

O=C1C(c2ccccc2)=c2c(c3ccccc3c3ccccc23)=C1c1ccccc1
T/C (dose: 50.0 mg/kg/injection, schedule: Q01DX001 (ip), vehicle: carboxymethylcellulose (CMC)): 103 % of control and 100 % of control | T/C (dose: 100.0 mg/kg/injection, schedule: Q01DX001 (ip), vehicle: carboxymethylcellulose (CMC)): 100 % of control and 97 % of control | T/C [7]: 96 % of control | T/C (dose: 200.0 mg/kg/injection, schedule: Q01DX001 (ip), vehicle: carboxymethylcellulose (CMC)): 100 % of control and 97 % of control | T/C [8]: 90 % of control | T/C (dose: 400.0 mg/kg/injection, schedule: Q01DX001 (ip), vehicle: carboxymethylcellulose (CMC)): 94 % of control | T/C [9]: 93 % of control

CCCCCCCCCCCCN=c1nc(N)ccn1C1OC(CO)C(O)C1O (stereo not drawn)
T/C (dose: 12.5 mg/kg/injection, schedule: Q01DX005 (ip), vehicle: saline): 110 % of control | T/C (dose: 25.0 mg/kg/injection, schedule: Q01DX005 (ip), vehicle: saline): 116 % of control

S=c1nc[nH]c2c1ncn2CN1CCCCC1
T/C (dose: 25.0 mg/kg/injection, schedule: Q01DX009 (ip), vehicle: other): 151 % of control | T/C (dose: 25.0 mg/kg/injection, schedule: Q01DX Z (ip), vehicle: carboxymethylcellulose (CMC)): 109 % of control | T/C (dose: 50.0 mg/kg/injection, schedule: Q01DX009 (ip), vehicle: other): 192 % of control | T/C (dose: 50.0 mg/kg/injection, schedule: Q01DX Z (ip), vehicle: carboxymethylcellulose (CMC)): 102 % of control | T/C (dose: 100.0 mg/kg/injection, schedule: Q01DX009 (ip), vehicle: other): 116 % of control | T/C (dose: 100.0 mg/kg/injection, schedule: Q01DX Z (ip), vehicle: carboxymethylcellulose (CMC)): 120 % of control | T/C (dose: 200.0 mg/kg/injection, schedule: Q01DX009 (ip), vehicle: other): 102 % of control

CC12CC3CC(C)(C1)CC(SCCN=C(N)CCl)(C3)C2
T/C (dose: 10.0 mg/kg/injection, schedule: Q04DX002 (ip), vehicle: Klucel (hydroxypropylcellulose) (HPC)): 105 % of control | T/C (dose: 20.0 mg/kg/injection, schedule: Q04DX002 (ip), vehicle: Klucel (hydroxypropylcellulose) (HPC)): 102 % of control | T/C (dose: 40.0 mg/kg/injection, schedule: Q04DX002 (ip), vehicle: Klucel (hydroxypropylcellulose) (HPC)): 110 % of control

COc1ccc(NC(=O)Nc2ccc(C)c(Cl)c2)cc1
T/C (dose: 100.0 mg/kg/injection, schedule: Q01DX009 (sc), vehicle: olive oil, sesame oil, peanut oil): 96 % of control | T/C (dose: 100.0 mg/kg/injection, schedule: Q04DX003 (sc), vehicle: olive oil, sesame oil, peanut oil): 99 % of control | T/C (dose: 200.0 mg/kg/injection, schedule: Q01DX009 (sc), vehicle: olive oil, sesame oil, peanut oil): 107 % of control | T/C (dose: 200.0 mg/kg/injection, schedule: Q04DX003 (sc), vehicle: olive oil, sesame oil, peanut oil): 93 % of control | T/C (dose: 400.0 mg/kg/injection, schedule: Q01DX009 (sc), vehicle: olive oil, sesame oil, peanut oil): 94 % of control | T/C (dose: 400.0 mg/kg/injection, schedule: Q04DX003 (sc), vehicle: olive oil, sesame oil, peanut oil): 97 % of control

O/N=C1\C(Cl)C2CC1C1C=CCC12 (stereo not drawn)
T/C (dose: 25.0 mg/kg/injection, schedule: Q04DX003 (ip), vehicle: Klucel (hydroxypropylcellulose) (HPC)): 91 % of control

Cc1ccc(S(=O)(=O)N(c2ccc(I)cc2F)S(=O)(=O)c2ccc(C)cc2)cc1
T/C [10]: 98 % of control | T/C [11]: 97 % of control | T/C [12]: 108 % of control

CCOc1ccc(/C=C(\NC(=O)c2ccccc2)C(=O)Nc2ccccc2)cc1OC
T/C [10]: 100 % of control | T/C [11]: 87 % of control | T/C [12]: 91 % of control

COc1cc2c(cc1O)C(=O)CCC(C(=O)O)=C2
T/C [6]: 93 % of control | T/C [7]: 107 % of control | T/C [8]: 96 % of control

COc1cc(OC)c(C(=O)c2ccccc2[N+](=O)[O-])c(OC)c1
T/C [7]: 91 % of control | T/C (dose: 100.0 mg/kg/injection, schedule: Q04DX003 (ip), vehicle: saline): 99 % of control | T/C [8]: 92 % of control | T/C (dose: 200.0 mg/kg/injection, schedule: Q04DX003 (ip), vehicle: saline): 99 % of control | T/C [9]: 96 % of control | T/C (dose: 400.0 mg/kg/injection, schedule: Q04DX003 (ip), vehicle: saline): 100 % of control

O=C(COc1ccc(Cl)cc1)Nc1ccc(Cl)cc1
T/C [4]: 91 % of control | T/C [10]: 92 % of control | T/C [11]: 93 % of control | T/C [13]: 88 % of control | T/C [12]: 93 % of control

COC(=O)C1(c2ccccc2)C(c2ccccc2)=C(c2ccccc2)C(c2ccccc2)CC1c1ccccc1 (stereo not drawn)
T/C (dose: 100.0 mg/kg/injection, schedule: Q04DX002 (ip), vehicle: Klucel (hydroxypropylcellulose) (HPC)): 103 % of control | T/C (dose: 200.0 mg/kg/injection, schedule: Q04DX002 (ip), vehicle: Klucel (hydroxypropylcellulose) (HPC)): 96 % of control | T/C (dose: 400.0 mg/kg/injection, schedule: Q04DX002 (ip), vehicle: Klucel (hydroxypropylcellulose) (HPC)): 92 % of control

Cc1cc2oc(/C=N/NC(N)=S)c(C)c2cc1C
T/C [4]: 100 % of control | T/C [5]: 99 % of control | T/C [13]: 105 % of control

CCOC(=O)C(C)N (stereo not drawn)
T/C [4]: 93 % of control | T/C [10]: 105 % of control | T/C [5]: 93 % of control | T/C [11]: 102 % of control | T/C [13]: 97 % of control | T/C [12]: 97 % of control
